These results are taken from patent US10131656B2, “Organic thin film transistor, method of manufacturing organic thin film transistor, organic thin film transistor material, organic thin film transistor composition, organic semiconductor film, and compound” (FUJIFILM Corporation, priority 2015, dated 2018).

This data set can be described thus: Evaluation of solubility to organic solvent (saturated solubility at room temperature). It counts as physicochemical. Conditions: room temperature (25° C.); for Solubility to organic solvent Solubility (4): saturated solubility in N,N-dimethylformamide; for Solubility to organic solvent Solubility (2): saturated solubility in chloroform; for Solubility to organic solvent Solubility (3): saturated solubility in tetrahydrofuran; for Solubility to organic solvent Solubility (1): saturated solubility in toluene. Here is the method: 2 mg of each example compound and comparative compound obtained above were weighed, and the saturated solubility (mass %) at room temperature (25° C.) was calculated from the volume and the specific gravity of toluene, chloroform, tetrahydrofuran, and N,N-dimethylformamide. Those having 2 mass % or greater were as set as “A”, those having 1 mass % or greater and less than 2 mass % were set as “B”, those having 0.1 mass % or greater and less than 1 mass % were set as “C”, and those having less than 0.1 mass % were set as “D”. Saturated solubility (hereinafter also referred to as solubility) of each compound in toluene, chloroform, tetrahydrofuran, and N,N-dimethylformamide was presented as Solubility (1) to (4), in the evaluation results of a first table.

Regarding `S=c1c2ccc3c4ccc5c(=S)n(C6CCCCC6)c(=S)c6cc7sc8cc(c(=S)n1C1CCCCC1)c2c3c8c7c4c56` [Example Compound 3], the “Solubility to organic solvent Solubility (4)” value was “B (those having 1 mass % or greater and less than 2 mass % were set as “B”)”; the “Solubility to organic solvent Solubility (2)” value is “B (those having 1 mass % or greater and less than 2 mass % were set as “B”)”; the “Solubility to organic solvent Solubility (3)” value is “B (those having 1 mass % or greater and less than 2 mass % were set as “B”)”; the “Solubility to organic solvent Solubility (1)” value is “B (those having 1 mass % or greater and less than 2 mass % were set as “B”)”.
With `CCCCCCCCCCC(CCCCCCCC)CCn1c(=O)c2ccc3c4ccc5c(=O)n(CCC(CCCCCCCC)CCCCCCCCCC)c(=O)c6cc7sc8cc(c1=O)c2c3c8c7c4c56` (centres unmarked) [Comparative Compound 1], the “Solubility to organic solvent Solubility (4)” value was “B (those having 1 mass % or greater and less than 2 mass % were set as “B”)”; the “Solubility to organic solvent Solubility (2)” value is given as “A (Those having 2 mass % or greater were as set as “A”)”; the “Solubility to organic solvent Solubility (3)” value is listed as “A (Those having 2 mass % or greater were as set as “A”)”; the “Solubility to organic solvent Solubility (1)” value was “B (those having 1 mass % or greater and less than 2 mass % were set as “B”)”.
